Experimental data reported in patent US10023570B2 (Array BioPharma, Inc., priority 2015, dated 2018).
Where a name gives a salt, the structure may show the parent alone.

Target: human KDR protein in HEK-293 cells (Homo sapiens (Human), UniProt P35968)
Assay: KDR Cell Assay (phospho-KDR in HEK-293 cells expressing inducible KDR)
Assay type: cell-based
Conditions: pKDR Cell HEK 10% FBS IC50, HEK-293 cells expressing inducible KDR, VEGF stimulated, 10% FBS
How it was run: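 HEK-293 cells with inducible human KDR were treated with compound for 1 h in DMEM (0.25% DMSO final), then lysed. Phospho-KDR was quantified by Meso Scale immunoassay, expressed as percent of control, and IC50 taken where a 4-parameter logistic fit crossed 50 POC.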

Sequence of human KDR protein in HEK-293 cells (P35968 20-1356): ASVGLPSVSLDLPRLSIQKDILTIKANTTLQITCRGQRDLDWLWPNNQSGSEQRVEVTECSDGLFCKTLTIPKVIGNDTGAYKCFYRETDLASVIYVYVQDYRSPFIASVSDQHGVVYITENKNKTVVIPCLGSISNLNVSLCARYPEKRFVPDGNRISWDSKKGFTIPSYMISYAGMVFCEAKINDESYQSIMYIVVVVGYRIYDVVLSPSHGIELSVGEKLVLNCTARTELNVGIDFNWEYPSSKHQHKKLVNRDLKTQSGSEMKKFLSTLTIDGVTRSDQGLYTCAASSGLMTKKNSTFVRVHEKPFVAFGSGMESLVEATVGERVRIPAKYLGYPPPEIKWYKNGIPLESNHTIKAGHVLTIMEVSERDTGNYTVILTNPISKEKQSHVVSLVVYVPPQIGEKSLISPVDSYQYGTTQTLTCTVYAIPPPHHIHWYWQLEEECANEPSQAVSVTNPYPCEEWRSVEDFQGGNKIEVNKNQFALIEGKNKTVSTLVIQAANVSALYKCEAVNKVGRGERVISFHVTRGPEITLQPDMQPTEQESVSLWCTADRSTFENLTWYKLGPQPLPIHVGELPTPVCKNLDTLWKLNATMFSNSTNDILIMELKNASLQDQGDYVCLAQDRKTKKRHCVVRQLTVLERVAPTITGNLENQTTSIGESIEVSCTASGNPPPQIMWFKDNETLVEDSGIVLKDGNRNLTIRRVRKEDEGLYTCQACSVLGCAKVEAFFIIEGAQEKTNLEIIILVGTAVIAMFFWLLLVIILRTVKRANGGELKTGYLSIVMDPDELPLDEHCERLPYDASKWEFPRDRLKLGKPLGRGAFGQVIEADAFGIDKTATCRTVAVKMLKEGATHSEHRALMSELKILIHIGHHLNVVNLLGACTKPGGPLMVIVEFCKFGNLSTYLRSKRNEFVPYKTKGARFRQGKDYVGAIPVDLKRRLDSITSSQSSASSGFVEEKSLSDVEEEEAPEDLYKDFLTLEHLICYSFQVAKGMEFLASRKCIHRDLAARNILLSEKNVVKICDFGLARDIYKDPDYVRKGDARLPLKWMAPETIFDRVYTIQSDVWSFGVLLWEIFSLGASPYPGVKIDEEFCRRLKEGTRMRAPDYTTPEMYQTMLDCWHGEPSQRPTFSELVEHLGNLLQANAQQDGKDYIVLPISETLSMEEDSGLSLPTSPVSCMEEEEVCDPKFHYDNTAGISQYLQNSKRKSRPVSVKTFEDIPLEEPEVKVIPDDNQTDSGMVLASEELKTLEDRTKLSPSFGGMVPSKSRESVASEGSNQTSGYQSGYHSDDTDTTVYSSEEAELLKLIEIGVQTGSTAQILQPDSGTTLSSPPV

Compound | IC50 [nM]
Cn1cc(-c2cc(-c3ccc(N4CCC(NC(=O)[C@@H]5CCCO5)CC4)nc3)c3c(C#N)cnn3c2)cn1 [Example 182, (5)-N-(1-(5-(3-cyano-6-(1-methyl-1H-pyrazol-4-yl)pyrazolo[1,5-a]pyridin-4-yl)pyridin-2-yl)piperidin-4-yl)tetrahydrofuran-2-carboxamide] | 563
Cn1cc(-c2cc(-c3ccc(N4CCC(NC(=O)c5ccccc5)CC4)nc3)c3c(C#N)cnn3c2)cn1 [Example 184, N-(1-(5-(3-cyano-6-(1-methyl-1H-pyrazol-4-yl)pyrazolo[1,5-a]pyridin-4-yl)pyridin-2-yl)piperidin-4-yl)benzamide] | 75.2
Cn1cc(-c2cc(-c3ccc(N4CCC(N5CCCC5=O)CC4)nc3)c3c(C#N)cnn3c2)cn1 [Example 189, 6-(1-methyl-1H-pyrazol-4-yl)-4-(6-(4-(2-oxopyrrolidin-1-yl)piperidin-1-yl)pyridin-3-yl)pyrazolo[1,5-a]pyridine-3-carbonitrile] | 255
Cn1cc(-c2cc(-c3ccc(N4CCC(N5CC[C@H](O)C5=O)CC4)nc3)c3c(C#N)cnn3c2)cn1 [Example 190, (S)-4-(6-(4-(3-hydroxy-2-oxopyrrolidin-1-yl)piperidin-1-yl)pyridin-3-yl)-6-(1-methyl-1H-pyrazol-4-yl)pyrazolo[1,5-a]pyridine-3-carbonitrile] | 277
Cn1cc(-c2cc(-c3ccc(N4CCC(N5CCOC5=O)CC4)nc3)c3c(C#N)cnn3c2)cn1 [Example 191, 6-(1-methyl-1H-pyrazol-4-yl)-4-(6-(4-(2-oxooxazolidin-3-yl)piperidin-1-yl)pyridin-3-yl)pyrazolo[1,5-a]pyridine-3-carbonitrile] | 21.8
Cn1cc(-c2cc(-c3ccc(N4[C@@H]5CC[C@H]4C[C@H](NC(=O)OC(C)(C)C)C5)nc3)c3c(C#N)cnn3c2)cn1 [Example 192, tert-butyl ((1R,3s,5S)-8-(5-(3-cyano-6-(1-methyl-1H-pyrazol-4-yl)pyrazolo[1,5-a]pyridin-4-yl)pyridin-2-yl)-8-azabicyclo[3.2.1]octan-3-yl)carbamate] | 932
Cn1cc(-c2cc(-c3ccc(N4[C@@H]5CC[C@H]4C[C@@H](NC(=O)OC(C)(C)C)C5)nc3)c3c(C#N)cnn3c2)cn1 [Example 194, tert-butyl ((1R,3r,5S)-8-(5-(3-cyano-6-(1-methyl-1H-pyrazol-4-yl)pyrazolo[1,5-a]pyridin-4-yl)pyridin-2-yl)-8-azabicyclo[3.2.1]octan-3-yl)carbamate] | 242
Cn1cc(-c2cc(-c3ccc(N4[C@@H]5CC[C@H]4C[C@@H](N)C5)nc3)c3c(C#N)cnn3c2)cn1 [Example 195, 4-(6-((1R,3r,5S)-3-amino-8-azabicyclo[3.2.1]octan-8-yl)pyridin-3-yl)-6-(1-methyl-1H-pyrazol-4-yl)pyrazolo[1,5-a]pyridine-3-carbonitrile dihydrochloride] | 247
Cn1cc(-c2cc(-c3ccc(N4[C@@H]5CC[C@H]4C[C@@H](O)C5)nc3)c3c(C#N)cnn3c2)cn1 [Example 199, 4-(6-((1R,3r,5S)-3-hydroxy-8-azabicyclo[3.2.1]octan-8-yl)pyridin-3-yl)-6-(1-methyl-1H-pyrazol-4-yl)pyrazolo[1,5-a]pyridine-3-carbonitrile] | 565
CO[C@H]1C[C@H]2CC[C@@H](C1)N2c1ccc(-c2cc(-c3cnn(C)c3)cn3ncc(C#N)c23)cn1 [Example 200, 4-(6-((1R,3r,5S)-3-methoxy-8-azabicyclo[3.2.1]octan-8-yl)pyridin-3-yl)-6-(1-methyl-1H-pyrazol-4-yl)pyrazolo[1,5-a]pyridine-3-carbonitrile] | 463
Cn1cc(-c2cc(-c3ccc(N4CCC5(CCN(C(=O)OC(C)(C)C)C5)CC4)nc3)c3c(C#N)cnn3c2)cn1 [Example 204, tert-butyl 8-(5-(3-cyano-6-(1-methyl-1H-pyrazol-4-yl)pyrazolo[1,5-a]pyridin-4-yl)pyridin-2-yl)-2,8-diazaspiro[4.5]decane-2-carboxylate] | 429
CC(C)[C@@H](O)C(=O)N1CCC2(CCN(c3ccc(-c4cc(-c5cnn(C)c5)cn5ncc(C#N)c45)cn3)CC2)C1 [Example 206, (R)-4-(6-(2-(2-hydroxy-3-methylbutanoyl)-2,8-diazaspiro[4.5]decan-8-yl)pyridin-3-yl)-6-(1-methyl-1H-pyrazol-4-yl)pyrazolo[1,5-a]pyridine-3-carbonitrile] | 1200
CC(C)C(=O)N1CCC2(CCN(c3ccc(-c4cc(-c5cnn(C)c5)cn5ncc(C#N)c45)cn3)CC2)C1 [Example 207, 4-(6-(2-isobutyryl-2,8-diazaspiro[4.5]decan-8-yl)pyridin-3-yl)-6-(1-methyl-1H-pyrazol-4-yl)pyrazolo[1,5-a]pyridine-3-carbonitrile] | 1960
Cn1cc(-c2cc(-c3ccc(N4CCCC5(CCN(C(=O)OC(C)(C)C)C5)C4)nc3)c3c(C#N)cnn3c2)cn1 (stereo not shown) [Example 208, tert-butyl 7-(5-(3-cyano-6-(1-methyl-1H-pyrazol-4-yl)pyrazolo[1,5-a]pyridin-4-yl)pyridin-2-yl)-2,7-diazaspiro[4.5]decane-2-carboxylate] | 4680
Cn1cc(-c2cc(-c3ccc(N4CCC5(CC4)CN(C(=O)OC(C)(C)C)C5)nc3)c3c(C#N)cnn3c2)cn1 [Example 214, tert-butyl 7-(5-(3-cyano-6-(1-methyl-1H-pyrazol-4-yl)pyrazolo[1,5-a]pyridin-4-yl)pyridin-2-yl)-2,7-diazaspiro[3.5]nonane-2-carboxylate] | 597
CC(C)[C@@H](O)C(=O)N1CC2(CCN(c3ccc(-c4cc(-c5cnn(C)c5)cn5ncc(C#N)c45)cn3)CC2)C1 [Example 216, (R)-4-(6-(2-(2-hydroxy-3-methylbutanoyl)-2,7-diazaspiro[3.5]nonan-7-yl)pyridin-3-yl)-6-(1-methyl-1H-pyrazol-4-yl)pyrazolo[1,5-a]pyridine-3-carbonitrile] | 574
Cn1cc(-c2cc(-c3ccc(N4CCC5(CC4)CN(C(=O)c4ccccc4)C5)nc3)c3c(C#N)cnn3c2)cn1 [Example 217, 4-(6-(2-benzoyl-2,7-diazaspiro[3.5]nonan-7-yl)pyridin-3-yl)-6-(1-methyl-1H-pyrazol-4-yl)pyrazolo[1,5-a]pyridine-3-carbonitrile] | 1670
Cn1cc(-c2cc(-c3ccc(N4CCC5(CC4)CN(C(=O)Cc4ccccc4)C5)nc3)c3c(C#N)cnn3c2)cn1 [Example 218, 6-(1-methyl-1H-pyrazol-4-yl)-4-(6-(2-(2-phenylacetyl)-2,7-diazaspiro[3.5]nonan-7-yl)pyridin-3-yl)pyrazolo[1,5-a]pyridine-3-carbonitrile] | 4790
CC(=O)N1CC2(CCN(c3ccc(-c4cc(-c5cnn(C)c5)cn5ncc(C#N)c45)cn3)CC2)C1 [Example 220, 4-(6-(2-acetyl-2,7-diazaspiro[3.5]nonan-7-yl)pyridin-3-yl)-6-(1-methyl-1H-pyrazol-4-yl)pyrazolo[1,5-a]pyridine-3-carbonitrile] | 617
CC(C)C(=O)N1CC2(CCN(c3ccc(-c4cc(-c5cnn(C)c5)cn5ncc(C#N)c45)cn3)CC2)C1 [Example 221, 4-(6-(2-isobutyryl-2,7-diazaspiro[3.5]nonan-7-yl)pyridin-3-yl)-6-(1-methyl-1H-pyrazol-4-yl)pyrazolo[1,5-a]pyridine-3-carbonitrile] | 1660
CC(C)OC(=O)N1CC2(CCN(c3ccc(-c4cc(-c5cnn(C)c5)cn5ncc(C#N)c45)cn3)CC2)C1 [Example 222, isopropyl 7-(5-(3-cyano-6-(1-methyl-1H-pyrazol-4-yl)pyrazolo[1,5-a]pyridin-4-yl)pyridin-2-yl)-2,7-diazaspiro[3.5]nonane-2-carboxylate] | 257
Cn1cc(-c2cc(-c3ccc(N4CC5(CCN(C(=O)OC(C)(C)C)CC5)C4)nc3)c3c(C#N)cnn3c2)cn1 [Example 223, tert-butyl 2-(5-(3-cyano-6-(1-methyl-1H-pyrazol-4-yl)pyrazolo[1,5-a]pyridin-4-yl)pyridin-2-yl)-2,7-diazaspiro[3.5]nonane-7-carboxylate] | 1550
Cn1cc(-c2cc(-c3ccc(N4CCOCC4)nc3)c3c(C#N)cnn3c2)cn1 [Example 224, 6-(1-methyl-1H-pyrazol-4-yl)-4-(6-morpholinopyridin-3-yl)pyrazolo[1,5-a]pyridine-3-carbonitrile] | 555
CC(C)NC(=O)[C@@H]1CN(c2ccc(-c3cc(-c4cnn(C)c4)cn4ncc(C#N)c34)cn2)CCO1 [Example 228, (S)-4-(5-(3-cyano-6-(1-methyl-1H-pyrazol-4-yl)pyrazolo[1,5-a]pyridin-4-yl)pyridin-2-yl)-N-isopropylmorpholine-2-carboxamide] | 4530
Cn1cc(-c2cc(-c3ccc(N4CCC(C(=O)NC5CC(F)(F)C5)CC4)nc3)c3c(C#N)cnn3c2)cn1 [Example 238, 1-(5-(3-cyano-6-(1-methyl-1H-pyrazol-4-yl)pyrazolo[1,5-a]pyridin-4-yl)pyridin-2-yl)-N-(3,3-difluorocyclobutyl) piperidine-4-carboxamide] | 420
CO[C@H]1C[C@H](NC(=O)C2CCN(c3ccc(-c4cc(-c5cnn(C)c5)cn5ncc(C#N)c45)cn3)CC2)C1 [Example 240, 1-(5-(3-cyano-6-(1-methyl-1H-pyrazol-4-yl)pyrazolo[1,5-a]pyridin-4-yl)pyridin-2-yl)-N-((1r,3r)-3-methoxycyclobutyl) piperidine-4-carboxamide] | 897
CO[C@H]1C[C@@H](NC(=O)C2CCN(c3ccc(-c4cc(-c5cnn(C)c5)cn5ncc(C#N)c45)cn3)CC2)C1 [Example 241, 1-(5-(3-cyano-6-(1-methyl-1H-pyrazol-4-yl)pyrazolo[1,5-a]pyridin-4-yl)pyridin-2-yl)-N-((1s,3s)-3-methoxycyclobutyl) piperidine-4-carboxamide] | 1840
Cn1cc(-c2cc(-c3ccc(N4CCC(C(=O)N5CCCC5)CC4)nc3)c3c(C#N)cnn3c2)cn1 [Example 248, 6-(1-methyl-1H-pyrazol-4-yl)-4-(6-(4-(pyrrolidine-1-carbonyl)piperidin-1-yl)pyridin-3-yl)pyrazolo[1,5-a]pyridine-3-carbonitrile] | 1240
